Laboratory results reported in US20240279233A1, “MACROCYCLIC TAK1 INHIBITORS” (Aqilion AB, priority 2021, published 2024).
Read-outs that look alike come from different tables or passages of the source.

Molecular target: human recombinant TAK1-TAB1 Kinase (TAK1 (1-303) and TAB1 (437-end)) (Homo sapiens (Human), UniProt O43318)
Assay: TAK1 biochemical ADP-Glo kinase assay
Details: MBP substrate
Experimental: The usefulness of the example compounds of the invention as TAK1 inhibitors was evaluated in a biochemical ADP-Glo kinase assay. Assay kits from Promega Corporation V4089 were used according to manufacturer's instructions and adapted as outlined here. ADP-Glo Kinase Assay kit contains ADP-Glo Reagent, Kinase Detection Reagent, kinase detection buffer, ATP, and ADP. The Kinase Enzyme Systems include human recombinant TAK1-TAB1 Kinase (TAK1 (1-303) and TAB1 (437-end)), Native Swine Myelin Basic Protein (MBP) substrate, 5×kinase reaction buffer, and DTT.
Test compounds were prepared in 1:5 serial dilutions at 8 concentrations in DMSO from 10 mM stock solutions. An additional 20-fold dilution in 1× kinase reaction buffer (see below) was performed, yielding a final dilution series in kinase buffer with 5% DMSO (final concentration in assay from 20 μM to 0.26 nM, 1% DMSO). As controls, Takinib was prepared as positive control (3 μM final in assay), and DMSO without inhibitor served as negative control, at a final assay concentration of DMSO of 1%.
One μl of compound solution in 5% DMSO was added to each well in a 384 well microtiter plate (OptiPlate #6007290). Two μl TAK1-TAB1 (7.5 ng/μl) in lxkinase reaction buffer ([…] Tris base pH 7.5, 20 mM MgCl2, 50 μM DTT, 0.1 mg/ml BSA) was added and pre-incubated 10 min before adding 2 μl of a mixture of MBP substrate and ATP (0.25 μg/μL MBP/25 μM ATP or 0.25 μg/μL MBP/2.5 mM ATP) in 1× kinase reaction buffer (as above). The plate was subsequently incubated at room temperature for 1 hour. Then 5 μl ADP-Glo™ reagent from ADP-Glo™ kit (as above) was added and incubated for 40 min to stop the reaction and consume remaining ATP. Ten μl kinase detection substrate (dissolved in kinase detection buffer, both from ADP-Glo™ kit as above) was then added to convert ADP to ATP and detect ATP with luciferase/luciferin. The plate was incubated for 30 minutes at room temperature in dark before reading luminescence on an Envision (PerkinElmer) reader.
IC50 values of compounds of the invention were determined by the non-linear regression analysis of dose response curves.

[1] = 10 μM ATP, read-out: TAK1 Mean IC50 (nM) @ 10 μM ATP
[2] = 1 mM ATP, read-out: TAK1 Mean IC50 (nM) @ 1 mM ATP

Chain of human recombinant TAK1-TAB1 Kinase (TAK1 (1-303) and TAB1 (437-end)) (O43318 other isoform, or with tags, fused parts or gaps): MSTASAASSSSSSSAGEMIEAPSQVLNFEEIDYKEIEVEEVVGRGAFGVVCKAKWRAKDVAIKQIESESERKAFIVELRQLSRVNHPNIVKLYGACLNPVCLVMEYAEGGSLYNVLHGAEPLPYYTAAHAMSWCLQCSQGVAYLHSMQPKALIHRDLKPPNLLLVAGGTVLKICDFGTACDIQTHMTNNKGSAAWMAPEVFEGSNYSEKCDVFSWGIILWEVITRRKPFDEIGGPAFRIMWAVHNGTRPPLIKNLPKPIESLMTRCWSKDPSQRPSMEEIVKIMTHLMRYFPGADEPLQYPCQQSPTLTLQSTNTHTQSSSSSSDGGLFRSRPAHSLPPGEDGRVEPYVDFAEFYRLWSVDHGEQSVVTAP

Row | Structure (SMILES) | IC50 [1] [nM] | IC50 [2] [nM]
1 | CC1CCCCNC(=O)c2cccc(c2)C(=O)Nc2nc3cccc(-c4ccc[nH]c4=O)c3n21 (single isomer, unassigned) [Example 36, (E)-11-methyl-1^7-(2-oxo-1,2-dihydropyridin-3-yl)-1^2,1^3-dihydro-1^1H-2,6-diaza-1(2,1)-benzo[d]imidazola-4(1,3)-benzenacycloundecaphane-3,5-dione] | 6 | –
2 | CC1CCCCNC(=O)c2cccc(c2)C(=O)/N=C2\Nc3cccc(-c4ncnn4C(F)F)c3N21 (single isomer, unassigned) [Example 139, (E)-1^7-(1-(difluoromethyl)-1H-1,2,4-triazol-5-yl)-11-methyl-1^2,1^3-dihydro-1^1H-2,6-diaza-1(2,1)-benzo[d]imidazola-4(1,3)-benzenacycloundecaphane-3,5-dione] | – | 17
3 | C[C@H]1CCCCNC(=O)c2cccc(c2)C(=O)/N=C2\Nc3ccnc(N4CCC(F)C4=O)c3N21 (single isomer, unassigned) [Example 127] | 5 | 18
4 | CC1CCCCNC(=O)c2cccc(c2)C(=O)Nc2nc3cccc(-c4ccc[nH]c4=O)c3n21 (single isomer, unassigned) [Example 35, (E)-11-methyl-1^7-(2-oxo-1,2-dihydropyridin-3-yl)-1^2,1^3-dihydro-1^1H-2,6-diaza-1(2,1)-benzo[d]imidazola-4(1,3)-benzenacycloundecaphane-3,5-dione] | 5 | –
5 | C[C@H]1CCCCNC(=O)c2cccc(c2)C(=O)/N=C2\Nc3cccc(C(=O)N4CC[C@@](C)(O)C4)c3N21 [Example 106, (S,E)-1^7-((R)-3-hydroxy-3-methylpyrrolidine-1-carbonyl)-11-methyl-1^2,1^3-dihydro-1^1H-2,6-diaza-1(2,1)-benzo[d]imidazola-4(1,3)-benzenacycloundecaphane-3,5-dione] | – | 6
6 | Cc1nnc(-c2cccc3c2N2/C(=N/C(=O)c4cccc(c4)C(=O)NCCCC[C@@H]2C)N3)n1C [Example 96, (S,E)-1^7-(4,5-dimethyl-4H-1,2,4-triazol-3-yl)-11-methyl-1^2,1^3-dihydro-1^1H-2,6-diaza-1(2,1)-benzo[d]imidazola-4(1,3)-benzenacycloundecaphane-3,5-dione] | 11 | 7
7 | CC1CCCCNC(=O)c2cccc(c2)C(=O)/N=C2\Nc3cccc(C(=O)N4CCC(F)(F)C4)c3N21 (stereo not shown) [Example 37, (E)-1^7-(3,3-difluoropyrrolidine-1-carbonyl)-11-methyl-1^2,1^3-dihydro-1^1H-2,6-diaza-1(2,1)-benzo[d]imidazola-4(1,3)-benzenacycloundecaphane-3,5-dione] | 5 | –
8 | CC1CCCCNC(=O)c2cccc(c2)C(=O)/N=C2\Nc3cccc(C(=O)N4CCOC[C@@H]4C)c3N21 (single isomer, unassigned) [Example 77] | 5 | –
9 | CC1CCCNC(=O)c2cccc(c2)C(=O)Nc2nc3cccc(C(=O)N(C)C)c3n2C1 (stereo not shown) [Example 51, (E)-N,N,10-trimethyl-3,5-dioxo-1^2,1^3-dihydro-1^1H-2,6-diaza-1(2,1)-benzo[d]imidazola-4(1,3)-benzenacycloundecaphane-1^7-carboxamide] | 136 | –
10 | Cc1nnc(-c2cccc3c2N2/C(=N/C(=O)c4cccc(c4)C(=O)NCCCC[C@@H]2C)N3)n1C(C)C [Example 134, (S,E)-1^7-(4-isopropyl-5-methyl-4H-1,2,4-triazol-3-yl)-11-methyl-1^2,1^3-dihydro-1^1H-2,6-diaza-1(2,1)-benzo[d]imidazola-4(1,3)-benzenacycloundecaphane-3,5-dione] | 10 | 12

Second part, the compound after the results:

Row | IC50 [1] [nM] | IC50 [2] [nM] | Structure (SMILES)
11 | 7 | 27 | C[C@H]1CCCCNC(=O)c2cccc(c2)C(=O)/N=C2\Nc3ccnc(N4CCN(C)C4=O)c3N21 [Example 130, (S,E)-11-methyl-1^4-(3-methyl-2-oxoimidazolidin-1-yl)-1^2,1^3-dihydro-1^1H-2,6-diaza-1(2,3)-imidazo[4,5-c]pyridina-4(1,3)-benzenacycloundecaphane-3,5-dione]
12 | – | 26 | C[C@H]1CCCCNC(=O)c2cccc(c2)C(=O)/N=C2\Nc3cccc(C(=O)N4CC(OC(F)(F)F)C4)c3N21 [Example 110, (S,E)-11-methyl-1^7-(3-(trifluoromethoxy)azetidine-1-carbonyl)-1^2,1^3-dihydro-1^1H-2,6-diaza-1(2,1)-benzo[d]imidazola-4(1,3)-benzenacycloundecaphane-3,5-dione]
13 | 6 | – | CC1CCCCNC(=O)c2cccc(c2)C(=O)/N=C2\Nc3cccc(-c4nccn4C)c3N21 (single isomer, unassigned) [Example 135, (E)-11-methyl-1^7-(1-methyl-1H-imidazol-2-yl)-1^2,1^3-dihydro-1^1H-2,6-diaza-1(2,1)-benzo[d]imidazola-4(1,3)-benzenacycloundecaphane-3,5-dione]
14 | 4 | – | CC1CCCCNC(=O)c2cccc(c2)C(=O)/N=C2\Nc3cccc(C4CCCNC4=O)c3N21 (single isomer, unassigned) [Example 59, (E)-11-methyl-1^7-(2-oxopiperidin-3-yl)-1^2,1^3-dihydro-1^1H-2,6-diaza-1(2,1)-benzo[d]imidazola-4(1,3)-benzenacycloundecaphane-3,5-dione]
15 | 3 | – | CC1CCCCNC(=O)c2cccc(c2)C(=O)/N=C2\Nc3cccc(C(=O)N4CC(F)(F)C4)c3N21 (stereo not shown) [Example 40, (E)-1^7-(3,3-difluoroazetidine-1-carbonyl)-11-methyl-1^2,1^3-dihydro-1^1H-2,6-diaza-1(2,1)-benzo[d]imidazola-4(1,3)-benzenacycloundecaphane-3,5-dione]
16 | 10 | 12 | Cc1nnc(-c2cccc3c2N2/C(=N/C(=O)c4cccc(c4)C(=O)NCCCCC2C)N3)o1 (single isomer, unassigned) [Example 133, (E)-11-methyl-1^7-(5-methyl-1,3,4-oxadiazol-2-yl)-1^2,1^3-dihydro-1^1H-2,6-diaza-1(2,1)-benzo[d]imidazola-4(1,3)-benzenacycloundecaphane-3,5-dione]
17 | 9 | – | CC1CCCCNC(=O)c2cccc(c2)C(=O)/N=C2\Nc3cccc(-c4ncn(C(F)F)n4)c3N21 (single isomer, unassigned) [Example 137, (E)-1^7-(1-(difluoromethyl)-1H-1,2,4-triazol-3-yl)-11-methyl-1^2,1^3-dihydro-1^1H-2,6-diaza-1(2,1)-benzo[d]imidazola-4(1,3)-benzenacycloundecaphane-3,5-dione]
18 | 4 | – | CN1CCN(Cc2ccc3c(c2)N/C2=N\C(=O)c4csc(c4)C(=O)NCCCCCN23)CC1 [Example 104, (1^2E,4^2Z)-1^5-((4-methylpiperazin-1-yl)methyl)-1^2,1^3-dihydro-1^1H-2,6-diaza-1(2,1)-benzo[d]imidazola-4(4,2)-thiophenacycloundecaphane-3,5-dione]
19 | 6 | – | CN1CCN(Cc2ccc3c(c2)N/C2=N\C(=O)c4cc(ccc4F)C(=O)NCCCCCN23)CC1 [Example 105, (E)-4^6-fluoro-1^5-((4-methylpiperazin-1-yl)methyl)-1^2,1^3-dihydro-1^1H-2,6-diaza-1(2,1)-benzo[d]imidazola-4(1,3)-benzenacycloundecaphane-3,5-dione]
20 | 6 | – | CC1CCCCNC(=O)c2cccc(c2)C(=O)/N=C2\Nc3cccc(C(=O)N(C)C4CCC4)c3N21 (stereo not shown) [Example 39, (E)-N-cyclobutyl-N,11-dimethyl-3,5-dioxo-1^2,1^3-dihydro-1^1H-2,6-diaza-1(2,1)-benzo[d]imidazola-4(1,3)-benzenacycloundecaphane-1^7-carboxamide]
21 | 8 | – | CC1CCCCNC(=O)c2cccc(c2)C(=O)/N=C2\Nc3cccc(-c4ncn(C(F)F)n4)c3N21 (single isomer, unassigned) [Example 138, (E)-1^7-(1-(difluoromethyl)-1H-1,2,4-triazol-3-yl)-11-methyl-1^2,1^3-dihydro-1^1H-2,6-diaza-1(2,1)-benzo[d]imidazola-4(1,3)-benzenacycloundecaphane-3,5-dione]
22 | 4 | – | CC1CCCCNC(=O)c2cccc(c2)C(=O)/N=C2\Nc3cccc(C4CCCNC4=O)c3N21 (single isomer, unassigned) [Example 58, (E)-11-methyl-1^7-(2-oxopiperidin-3-yl)-1^2,1^3-dihydro-1^1H-2,6-diaza-1(2,1)-benzo[d]imidazola-4(1,3)-benzenacycloundecaphane-3,5-dione]
23 | 258 | – | C[C@H]1CCCCNC(=O)c2cccc(c2)C(=O)Nc2nc3ccc(Cl)c(C(=O)N(C)C)c3n21 (single isomer, unassigned) [Example 53]
